Data set [1] deals with T1, Endothelin receptor type B (Rattus norvegicus, UniProt P21451).
T1 sequence (P21451 whole entry): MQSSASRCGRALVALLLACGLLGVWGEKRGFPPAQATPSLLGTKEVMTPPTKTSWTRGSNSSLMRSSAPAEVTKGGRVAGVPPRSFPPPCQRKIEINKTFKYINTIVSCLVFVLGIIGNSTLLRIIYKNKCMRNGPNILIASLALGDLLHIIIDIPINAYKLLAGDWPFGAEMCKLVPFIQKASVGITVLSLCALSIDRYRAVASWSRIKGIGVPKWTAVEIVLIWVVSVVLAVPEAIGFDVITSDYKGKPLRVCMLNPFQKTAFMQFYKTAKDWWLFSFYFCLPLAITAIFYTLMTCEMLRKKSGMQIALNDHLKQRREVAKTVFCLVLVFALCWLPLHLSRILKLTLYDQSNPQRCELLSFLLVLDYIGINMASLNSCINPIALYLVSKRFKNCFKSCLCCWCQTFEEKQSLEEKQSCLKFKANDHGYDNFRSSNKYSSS
Kind of data set: Tested for its inhibitory activity against Endothelin B receptor.

Data set [2] has as its target T2, Endothelin-1 receptor (Sus scrofa, UniProt Q29010).
T2 sequence (Q29010 whole entry): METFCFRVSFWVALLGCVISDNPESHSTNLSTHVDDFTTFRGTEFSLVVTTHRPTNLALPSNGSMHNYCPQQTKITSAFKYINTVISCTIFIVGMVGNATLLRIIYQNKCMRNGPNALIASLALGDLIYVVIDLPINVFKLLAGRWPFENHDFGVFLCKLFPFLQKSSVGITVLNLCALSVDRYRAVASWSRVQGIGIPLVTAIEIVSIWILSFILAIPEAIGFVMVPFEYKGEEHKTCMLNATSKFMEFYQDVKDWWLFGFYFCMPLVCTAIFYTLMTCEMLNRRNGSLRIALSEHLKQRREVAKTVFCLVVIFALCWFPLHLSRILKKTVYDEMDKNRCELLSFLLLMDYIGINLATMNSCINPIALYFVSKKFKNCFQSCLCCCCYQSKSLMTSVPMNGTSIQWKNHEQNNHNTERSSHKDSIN
Kind of data set: Tested for its inhibitory activity against Endothelin A receptor.

For data set [3], the target named is T2, Endothelin-1 receptor. Briefly: Tested for its inhibitory activity against Endothelin A receptor; inactive.
Data set [4] has as its target T1, Endothelin receptor type B. Kind of data set: Tested for its inhibitory activity against Endothelin B receptor; Compound was inactive.
The nature of data set [5]: Tested for inhibition of ET-1 induced phosphoinositide (PI) turnover in A7r5 smooth muscle cells. The data set is classed as functional, cell-based. Particulars: Rattus norvegicus; call rule not given here.
In data set [6] the target is T2, Endothelin-1 receptor. Briefly: Tested for its ability to inhibit the binding of [125I]ET1 to the Endothelin A receptor in porcine thoracic aorta membranes. It counts as cell membranes.
For data set [7], the species on record is Oryctolagus cuniculus. Kind of data set: Tested for inhibition of ET-1 induced contractile response in isolated rabbit aorta at the concentration of 0.1 uM. The data set is classed as functional.
Data set [8] is filed under the species Oryctolagus cuniculus. Kind of data set: Tested for inhibition of ET-1 induced contractile response in isolated rabbit aorta at the concentration of 1 uM. The data set is classed as functional.
For data set [9], the target named is Voltage-gated L-type calcium channel (Rattus norvegicus, UniProt P22002+Q02485+P27732). Briefly: Inhibition of [3H]PN-200-110 binding to L-type calcium channels in rat cortex membranes. The data set is classed as cell membranes, Membrane.
For data set [10], the target named is T1, Endothelin receptor type B. Kind of data set: Tested for its ability to inhibit the binding of [125I]ET1 to the Endothelin B receptor in rat cerebellum membranes. The data set is classed as cell membranes, Membrane.
In data set [11] the test system is Rattus norvegicus. Kind of data set: Tested for the dose at which depressor response attenuated by intravenous administration in conscious rat. It counts as functional.
For data set [12], the species on record is Oryctolagus cuniculus. Briefly: Tested for inhibition of ET-1 induced contractile response in isolated rabbit aorta at the concentration of 10 uM. It counts as functional.
For data set [13], the system named is Rattus norvegicus. Briefly: Tested for the dose at which pressor response abolished by intravenous administration. It counts as functional.
The nature of data set [14]: The half-life period was reported. It counts as ADME.

Structures are written as SMILES.

With `COC(=O)C1=C(C)N=C(C)/C(=C(/O)OC(=O)C2=C(C)N=C(C)/C(=C(/O)OC)[C@@H]2c2cccc([N+](=O)[O-])c2)[C@H]1c1cccc([N+](=O)[O-])c1`, the IC50 (as a rule, the point on the concentration scale where inhibition reaches its midpoint) turned out to be 2700 nM in data set [1] and 422 nM against Endothelin-1 receptor [2].
Regarding `COC(=O)C1=C(C)N=C(C)/C(=C(/O)OC(=O)C2=C(C)N=C(C)/C(=C(/O)OC)[C@H]2c2cccc([N+](=O)[O-])c2)[C@@H]1c1cccc([N+](=O)[O-])c1`, the IC50 entry (against Endothelin-1 receptor [3]; in [4]) was “Not Active” each time.
Regarding `COC(=O)C1=C(C)N=C(C)/C(=C(/O)OC(=O)C2=C(C)N=C(C)/C(=C(/O)OC)[C@@H]2c2cccc([N+](=O)[O-])c2)[C@@H]1c1cccc([N+](=O)[O-])c1`, in [5], the response was half-maximal at 143 nM (EC50). The half-maximal inhibitory concentration (IC50) at Endothelin-1 receptor [6] is 15.9 nM; in data set [9] it was 592 nM; in [10], 295 nM. Also, in the data set listed under Oryctolagus cuniculus [7], testing at 0.1 µM gave an inhibition of 33%. Further, the inhibition (in general, the change of the read-out against control, counted positive when it falls) at 1 µM in the data set filed under Oryctolagus cuniculus [8] worked out at 42%. For the same compound, the Dose with Rattus norvegicus [11] came out at 0.25 nM/kg; in the data set on Rattus norvegicus [13], 10 mg/kg. In the data set filed under Oryctolagus cuniculus [12], the inhibition at 10 µM is 77%. The half-life (usually how long it takes for the measured level to halve) in data set [14] was below 60 min.
